Source: patent publication US12454534B2, “Pyrrolo[2,3-b]pyrazines as HPK1 inhibitor and the use thereof” (BEIGENE, LTD., priority 2019, dated 2025)

How the values were obtained:
[1] = molecular target: T1, HPK1 kinase (aa1-346, Life Technologies) (Homo sapiens, UniProt Q92918); test: HPK1 Kinase Activity Assay at 1 mM ATP (TR-FRET); format: biochemical; details: HPK1 40 nM, read-out: Enzymatic activity IC50
T1 construct: HPK1 kinase (aa1-346, Life Technologies); purchased Life Technologies
T1 sequence (Q92918 1-346): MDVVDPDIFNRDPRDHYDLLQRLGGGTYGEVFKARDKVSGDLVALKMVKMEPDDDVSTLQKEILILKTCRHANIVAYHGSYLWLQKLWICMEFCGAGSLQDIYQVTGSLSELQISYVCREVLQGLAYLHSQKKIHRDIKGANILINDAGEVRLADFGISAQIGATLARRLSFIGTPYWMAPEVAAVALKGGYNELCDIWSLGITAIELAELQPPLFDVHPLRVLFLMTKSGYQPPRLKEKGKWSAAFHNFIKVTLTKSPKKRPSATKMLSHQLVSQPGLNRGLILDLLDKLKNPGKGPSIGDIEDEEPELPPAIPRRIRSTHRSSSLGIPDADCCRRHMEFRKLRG
Method in brief: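 HPK1 (aa1-346, 40 nM) pre-incubated 60 min at room temperature with compound (0-10 μM), then reacted 120 min with 1 mM ATP and 0.5 μM STK1 substrate in HEPES pH 7.0 with MgCl2. Phosphorylation read by TR-FRET (665/620 nm); IC50 from four-parameter logistic fit.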

HEK293 cells = test: HEK293 cell viability assay (CellTiter-Glo); format: cell-based; details: 3-day exposure, 0 to 10 μM
Procedure: Cytotoxicity on HEK293 Cells Proliferation (HEK293 Cell Viability Assay)
HEK293 cell line were used in this study. Cell lines were maintained in DMEM (Dulbecco's Modified Eagle Medium) supplemented with 10% fetal bovine serum (Thermo Fisher), 50 units/mL penicillin and streptomycin (Thermo Fisher) and kept at 37° C. in a humidified atmosphere containing 5% CO2 in air. Cell lines were reinstated from frozen stocks that were laid down within 50 passages from the original cells purchased. The growth-inhibitory activity of compounds in HEK293 cells was determined using CellTiter-Glo luminescent cell viability assay (Promega). 3000 cells per well were seeded into a 96-well plate to ensure logarithmic growth for 3 days treatment period. Cells were treated with a 10-point dilution series. The final compound concentration was from 0 to 10 μM. Following a 3-day exposure to the test compounds, 30 μL of CellTiter-Glo reagent was added into 100 μL cell culture medium per well. Mixture was mixed on an orbital shaker for 2 minutes to allow cell lysis, followed by 10 minutes of incubation at room temperature to allow development and stabilization of luminescent signal, which corresponded to the quantity of ATP and thus the quantity of metabolically active cells. Luminescent signal was measured using PHERAstar FS reader (BMG Labtech). IC50 values for cell viability were determined with Dotmatics.

IC50 [1] [nM] | SMILES | IC50 (HEK293 cells) [nM] | IC50 (HEK293 cells; Homo sapiens, HEK293, 72 h) [nM]
65 | Cc1cc(-c2cnc3[nH]cc(-c4ccc(C(=O)N(C)CC(C)(C)O)cc4)c3n2)cc2c1CCN(C)C2 [Example 38, 4-(2-(2,5-dimethyl-1,2,3,4-tetrahydroisoquinolin-7-yl)-5H-pyrrolo[2,3-b]pyrazin-7-yl)-N-(2-hydroxy-2-methylpropyl)-N-methylbenzamide] | 2190 | –
71 | CN1CCc2c(cc(-c3cnc4[nH]cc(-c5ccc(C(=O)N(C)C)cc5)c4n3)cc2C(F)F)C1 [Example 95, 4-(2-(5-(difluoromethyl)-2-methyl-1,2,3,4-tetrahydroisoquinolin-7-yl)-5H-pyrrolo[2,3-b]pyrazin-7-yl)-N, N-dimethylbenzamide] | – | 5180
43 | Cc1cc(-c2c[nH]c3ncc(-c4cc(C)c5c(c4)CCN(C)C5)nc23)ccc1C(=O)N(C)C [Example 126, 4-(2-(2,8-dimethyl-1,2,3,4-tetrahydroisoquinolin-6-yl)-5H-pyrrolo[2,3-b]pyrazin-7-yl)-N, N, 2-trimethylbenzamide] | – | > 10000
86 | CCN1CCc2c(C)cc(-c3cnc4[nH]cc(-c5ccc(C(=O)N(C)C)c(C)c5)c4n3)cc2C1 [Example 127, 4-(2-(2-ethyl-5-methyl-1,2,3,4-tetrahydroisoquinolin-7-yl)-5H-pyrrolo[2,3-b]pyrazin-7-yl)-N, N, 2-trimethylbenzamide] | – | 3130
